Test results reported in patent US5484940A, “Substituted 3-indolyl-5-pyrazolone compounds” (priority 1994, dated 1996).

Key:
[1] = biological target: T1, 5-lipoxygenase (Rattus norvegicus, UniProt P12527); test: 5-Lipoxygenase inhibition (5-HETE radioimmunoassay); assay type: biochemical; details: 6 μM compound; crude enzyme from RBL-1 cells; read-out: Percent Inhibition (5-lipoxygenase)
T1 construct: crude 5-lipoxygenase enzyme from rat basophilic leukemia cells (RBL-1); endogenous in cells; host or cells: RBL-1 (rat basophilic leukemia cells), crude enzyme
T1 sequence (P12527 1-673): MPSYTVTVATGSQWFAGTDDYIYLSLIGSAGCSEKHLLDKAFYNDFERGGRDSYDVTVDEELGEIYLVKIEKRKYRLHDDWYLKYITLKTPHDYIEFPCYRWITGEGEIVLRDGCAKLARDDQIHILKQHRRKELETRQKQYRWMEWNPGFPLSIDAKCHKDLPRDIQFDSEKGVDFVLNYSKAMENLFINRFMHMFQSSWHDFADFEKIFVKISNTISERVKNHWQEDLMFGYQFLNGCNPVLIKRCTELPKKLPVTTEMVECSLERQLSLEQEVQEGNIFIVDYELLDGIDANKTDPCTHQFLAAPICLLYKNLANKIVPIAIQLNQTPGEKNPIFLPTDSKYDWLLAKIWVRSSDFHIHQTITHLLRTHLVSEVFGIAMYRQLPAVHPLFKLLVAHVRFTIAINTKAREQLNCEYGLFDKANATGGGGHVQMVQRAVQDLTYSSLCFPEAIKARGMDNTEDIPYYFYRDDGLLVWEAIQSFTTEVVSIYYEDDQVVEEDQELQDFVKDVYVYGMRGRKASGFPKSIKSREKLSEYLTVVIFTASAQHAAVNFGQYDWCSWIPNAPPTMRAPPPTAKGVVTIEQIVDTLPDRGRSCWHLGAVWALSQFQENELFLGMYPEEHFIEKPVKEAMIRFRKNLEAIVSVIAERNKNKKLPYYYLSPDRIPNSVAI
Experimental: 5-Lipoxygenase catalyzes the oxidative metabolism of arachidonic acid to 5-hydroperoxyeicosatetraenoid acid ([…]), the initial reaction leading to the formation of the leukotrienes^18. Accordingly, compounds inhibiting 5-lipoxygenase activity are art recognized to have anti-inflammatory properties.
The ability of test compounds to inhibit 5-lipoxygenase activity was determined in assays^19 using crude 5-lipoxygenase enzyme from rat basophilic leukemia cells (RBL-1). Test compounds are pre-incubated with the enzyme for 5 minutes at room temperature and the reaction is initiated by addition of substrate (arachidonic acid). Following an 8 minute incubation at room temperature, the reaction is terminated by addition of citric acid, and levels of 5-HETE determined by 5-HETE radioimmunoassay.

[2] = system: 293 751 SWE cells; test: Cytotoxicity (MTT) in 293 751 SWE cells; assay type: cell-based, human; details: concentration not given
Outline: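 Used HEK293 cells stably expressing APP751 carrying the Swedish double mutation (K651N/M652L), plated at 1.5-2.5×10^4 cells/well in DMEM + 10% FBS. MTT was added to a final 1 mg/mL for 1 h at 37 °C, then lysed in SDS/DMF (pH 4.7) overnight. Viability was read as OD562 − OD650.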

[3] = system: rat cortical neurons; test: Inhibition of toxicity of β-amyloid peptide to rat neuronal cells (alamarBlue); assay type: cell-based; details: 10 to 20 μM β-amyloid peptide, 2-3 days; on average where more than one duplicate experiment; compound concentration not stated
Outline: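 Primary cortical neurons from E18 rat fetuses were cultured in serum-free DMEM/B27 at 37° C, 10% CO2. Medium was replaced with DMEM/N2 containing 10 to 20 μM β-amyloid peptide and test compound, and cultures were kept 2-3 days. Neuronal survival was quantified by reduction of 10% alamarBlue.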

COc1ccc2c(c1)c(CC1=NN(c3cccc(C(F)(F)F)c3)C(=O)C1)c(C)n2C(=O)c1ccc(Cl)cc1 [Example 25, 3-[1-(4-chlorobenzoyl)-5-methoxy-2-methyl-3-indolylmethyl]-1-(3-trifluoromethylphenyl)-5-pyrazolone]
inhibition at 6 µM [1]: 60%
cytotoxic effect on the 293 751 SWE cells [2]: did not have a significant cytotoxic effect
inhibition of the toxicity of β-amyloid peptide to rat neuronal cells [3]: at least 10%
